Test results reported in patent publication US11298363B2, “Triazolobenzazepines as vasopressin V1a receptor antagonists” (RICHTER GEDEON NYRT., priority 2017, dated 2022).

Tests used:
[1] = biological target: T1, human vasopressin V1a receptor (Homo sapiens, UniProt P37288); test: Functional assay on human vasopressin V1a receptor expressing cell line (intracellular Ca2+ fluorescence); assay type: cell-based; conditions: 1321N1 cells, (Arg8)-vasopressin at EC80; read-out: IC50 (nM) on hV1a cell line
[2] = biological target: T1, human vasopressin V1a receptor; test: Human vasopressin V1a receptor binding assay; conditions: 1321N1 cell membranes, [3H]vasopressin; read-out: Ki (nM) on hV1a cell line
Method in brief: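 Radioligand competition on membranes from cells expressing human V1a receptor; incubation 60 minutes at 27° C., non-specific binding with 1.2×10^−6 M unlabeled (Arg^8)-vasopressin, filtration separation. Ki by Cheng-Prusoff using Scatchard-derived KD, from at least two independent experiments.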

T1 sequence (P37288 whole entry): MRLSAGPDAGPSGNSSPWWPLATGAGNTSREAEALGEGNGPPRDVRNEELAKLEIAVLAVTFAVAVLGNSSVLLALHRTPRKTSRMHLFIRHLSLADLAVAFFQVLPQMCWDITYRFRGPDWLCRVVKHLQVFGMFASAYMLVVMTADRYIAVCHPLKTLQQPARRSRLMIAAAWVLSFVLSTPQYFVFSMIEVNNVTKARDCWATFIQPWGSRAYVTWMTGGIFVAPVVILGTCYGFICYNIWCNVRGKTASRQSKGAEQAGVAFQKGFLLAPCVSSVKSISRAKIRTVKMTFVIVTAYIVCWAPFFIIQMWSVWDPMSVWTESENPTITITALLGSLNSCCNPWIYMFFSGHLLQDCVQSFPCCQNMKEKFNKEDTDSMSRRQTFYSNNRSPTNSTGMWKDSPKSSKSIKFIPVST

Row | Compound | IC50 [1] [nM] | Ki [2] [nM]
1 | Clc1ccc2c(c1)CC1(Cc3nnc([C@H]4CC[C@H](Oc5ccccn5)CC4)n3-2)OCCCCO1 [Example 106, 8′-chloro-1′-[trans-4-(pyridin-2-yloxy)cyclohexyl]-4°,6′-spiro[1,3-dioxepane-2,5′-[1,2,4]triazolo[4,3-a][1]benzazepine]] | 1.8 | 0.1
2 | OC1Cc2ccccc2-n2c(nnc2[C@H]2CC[C@H](Oc3ccccn3)CC2)C1 (stereo partly drawn) [Example 107, 1-[trans-4-(pyridin-2-yloxy)cyclohexyl]-5,6-dihydro-4H-[1,2,4]triazolo[4,3-a][1]benzazepin-5-ol] | 12 | 1
3 | O=C([C@H]1CC[C@H](c2nnc3n2-c2ccc(Cl)cc2CC2(C3)OCCO2)CC1)N1CCOCC1 [Example 108, Trans-4-(8′-chloro-4′H,6′H-spiro[1,3-dioxolane-2,5′-[1,2,4]triazolo[4,3-a][1]benzazepin]-1′-yl)cyclohexyl(morpholin-4-yl)methanone] | 4.9 | 0.2
4 | COC1Cc2ccccc2-n2c(nnc2[C@H]2CC[C@H](Oc3ccccn3)CC2)C1 (stereo partly drawn) [Example 109, 5-methoxy-1-[trans-4-(pyridin-2-yloxy)cyclohexyl]-5,6-dihydro-4H-[1,2,4]triazolo[4,3-a][1]benzazepine] | 2.7 | 0.4
5 | O=C1Cc2cc(F)ccc2-n2c(nnc2[C@H]2CC[C@H](Oc3ccccn3)CC2)C1 [Example 110, 8-fluoro-1-[trans-4-(pyridin-2-yloxy)cyclohexyl]-4H-[1,2,4]triazolo[4,3-a][1]benzazepin-5(6H)-one] | 8.3 | 2.1
6 | OC1Cc2cc(F)ccc2-n2c(nnc2[C@H]2CC[C@H](Oc3ccccn3)CC2)C1 (stereo partly drawn) [Example 111, 8-fluoro-1-[trans-4-(pyridin-2-yloxy)cyclohexyl]-5,6-dihydro-4H-[1,2,4]triazolo[4,3-a][1]benzazepin-5-ol] | 2.4 | 0.3
7 | CC(C)(C)OC(=O)NC1Cc2cc(Cl)ccc2-n2c(nnc2[C@H]2CC[C@H](N3CCOCC3)CC2)C1 (stereo partly drawn) [Example 112, Tert-butyl {8-chloro-1-[trans-4-(morpholin-4-yl)cyclohexyl]-5,6-dihydro-4H-[1,2,4]triazolo[4,3-a][1]benzazepin-5-yl}carbamate] | 213 | 45.4
8 | NC1Cc2cc(Cl)ccc2-n2c(nnc2[C@H]2CC[C@H](N3CCOCC3)CC2)C1 (stereo partly drawn) [Example 113, 8-chloro-1-[trans-4-(morpholin-4-yl)cyclohexyl]-5,6-dihydro-4H-[1,2,4]triazolo[4,3-a][1]benzazepin-5-amine] | 305 | 21
9 | CC(C)N1CC[C@]2(CC[C@@H](c3nnc4n3-c3ccc(Cl)cc3CC3(C4)OCCO3)CC2)C1=O [Example 115] | 0.8 | 0.5
10 | CC(C)N1CC[C@]2(CC[C@@H](c3nnc4n3-c3ccc(Cl)cc3CC(O)C4)CC2)C1=O (stereo partly drawn) [Example 116, (5r,8r)-8-(8-chloro-5-hydroxy-5,6-dihydro-4H-[1,2,4]triazolo[4,3-a][1]benzazepin-1-yl)-2-(propan-2-yl)-2-azaspiro[4,5]decan-1-one] | 2.1 | 0.7
11 | Clc1ccc2c(c1)C[C@H](N1CCOCC1)Cc1nnc([C@H]3CC[C@H](Oc4ccccn4)CC3)n1-2 [Example 122, (5S)-8-chloro-5-(morpholin-4-yl)-1-[trans-4-(pyridin-2-yloxy)cyclohexyl]-5,6-dihydro-4H-[1,2,4]triazolo[4,3-a][1]benzazepine] | 14 | 3
12 | Clc1ccc2c(c1)C[C@H](N1CCCCC1)Cc1nnc([C@H]3CC[C@H](Oc4ccccn4)CC3)n1-2 [Example 127, (5S)-8-chloro-5-(piperidin-1-yl)-1-[trans-4-(pyridin-2-yloxy)cyclohexyl]-5,6-dihydro-4H-[1,2,4]triazolo[4,3-a][1]benzazepine] | 17 | 2.8
13 | CC(C)N1CC[C@]2(CC[C@H](c3nnc4n3-c3ccc(Cl)cc3CC3(C4)OCCO3)CC2)C1=O [Example 129, (5s,8s)-8-(8′-chloro-4′H,6′H-spiro[1,3-dioxolane-2,5-[1,2,4]triazolo[4,3-a][1]benzazepin]-1′-yl)-2-(propan-2-yl)-2-azaspiro[4.5]decan-1-one] | 20 | 0.5
14 | COC1Cc2cc(Cl)ccc2-n2c(nnc2[C@H]2CC[C@H](N3CCOCC3)CC2)C1 (stereo partly drawn) [Example 130, 8-chloro-5-methoxy-1-[trans-4-(morpholin-4-yl)cyclohexyl]-5,6-dihydro-4H-[1,2,4]triazolo[4,3-a][1]benzazepine] | 6.1 | 2.4
15 | CCOC1Cc2cc(Cl)ccc2-n2c(nnc2[C@H]2CC[C@H](Oc3ccccn3)CC2)C1 (stereo partly drawn) [Example 131, 8-chloro-5-ethoxy-1-[trans-4-(pyridin-2-yloxy)cyclohexyl]-5,6-dihydro-4H-[1,2,4]triazolo[4,3-a][1]benzazepine] | 0.7 | 0.3
16 | COC1Cc2cc(F)ccc2-n2c(nnc2[C@H]2CC[C@H](Oc3ccccn3)CC2)C1 (stereo partly drawn) [Example 134, 8-fluoro-5-methoxy-1-[trans-4-(pyridin-2-yloxy)cyclohexyl]-5,6-dihydro-4H-[1,2,4]triazolo[4,3-a][1]benzazepine] | 1.5 | 0.2
17 | OCCOC1Cc2cc(Cl)ccc2-n2c(nnc2[C@H]2CC[C@H](Oc3ccccn3)CC2)C1 (stereo partly drawn) [Example 136, 2-({8-chloro-1-[trans-4-(pyridin-2-yloxy)cyclohexyl]-5,6-dihydro-4H-[1,2,4]triazolo[4,3-a][1]benzazepin-5-yl}oxy)ethanol] | 1.6 | 0.2
18 | CCN(CC)[C@H]1Cc2cc(Cl)ccc2-n2c(nnc2[C@H]2CC[C@H](Oc3ccccn3)CC2)C1 [Example 137, (5S)-8-chloro-N,N-diethyl-1-[trans-4-(pyridin-2-yloxy)cyclohexyl]-5,6-dihydro-4H-[1,2,4]triazolo[4,3-a][1]benzazepin-5-amine] | 9.2 | 0.7

The next lines start with the values.

Row | IC50 [1] [nM] | Ki [2] [nM] | Compound
19 | 1.4 | 0.3 | CC(C)OC1Cc2cc(Cl)ccc2-n2c(nnc2[C@H]2CC[C@H](Oc3ccccn3)CC2)C1 (stereo partly drawn) [Example 105, 8-chloro-5-(propan-2-yloxy)-1-[trans-4-(pyridin-2-yloxy)cyclohexyl]-5,6-dihydro-4H-[1,2,4]triazolo[4,3-a][1]benzazepine]
20 | 205 | 26.5 | CC(C)NC1Cc2cc(Cl)ccc2-n2c(nnc2[C@H]2CC[C@H](N3CCOCC3)CC2)C1 (stereo partly drawn) [Example 114]
21 | 4.3 | 0.9 | Clc1ccc2c(c1)C[C@H](N1CCCC1)Cc1nnc([C@H]3CC[C@H](Oc4ccccn4)CC3)n1-2 [Example 117, (5S)-8-chloro-1-[trans-4-pyridin-2-loxcyclohexyl]-5-(pyrrolidin-1-yl)-5,6-dihydro-4H-[1,2,4]triazolo[4,3-a][1]benzazepine]
22 | 251 | 66 | CC(C)(C)C(=O)N[C@H]1Cc2cc(Cl)ccc2-n2c(nnc2[C@H]2CC[C@H](Oc3ccccn3)CC2)C1 [Example 118]
23 | 111 | 27 | O=C(N[C@H]1Cc2cc(Cl)ccc2-n2c(nnc2[C@H]2CC[C@H](Oc3ccccn3)CC2)C1)C1CC1 [Example 119, N-{(5S)-8-chloro-1-[trans-4-(pyridin-2-yloxy)cyclohexyl]-5,6-dihydro-4H-[1,2,4]triazolo[4,3-a][1]benzazepin-5-yl}cyclopropanecarboxamide]
24 | 465 | 52 | CC(C)C(=O)N[C@H]1Cc2cc(Cl)ccc2-n2c(nnc2[C@H]2CC[C@H](Oc3ccccn3)CC2)C1 [Example 120, N-{(5S)-8-chloro-1-[trans-4-(pyridin-2-yloxy)cyclohexyl]-5,6-dihydro-4H-[1,2,4]triazolo[4,3-a][1]benzazepin-5-yl}-2-methylpropanamide]
25 | 442 | 79 | O=C(N[C@H]1Cc2cc(Cl)ccc2-n2c(nnc2[C@H]2CC[C@H](Oc3ccccn3)CC2)C1)C1CCC1 [Example 121, N-{(5S)-8-chloro-1-[trans-4-(pyridin-2-yloxy)cyclohexyl]-5,6-dihydro-4H-[1,2,4]triazolo[4,3-a][1]benzazepin-5-yl}cyclobutanecarboxamide]
26 | 6.3 | 2.1 | CC(C)(C)C(=O)N[C@@H]1Cc2cc(Cl)ccc2-n2c(nnc2[C@H]2CC[C@H](Oc3ccccn3)CC2)C1 [Example 123, N-{(5R)-8-chloro-1-[trans-4-(pyridin-2-yloxy)cyclohexyl]-5,6-dihydro-4H-[2,4]triazolo[4,3-a][1]benzazepin-5-yl}-2,2-dimethylpropanamide]
27 | 5.1 | 1.7 | CC(C)C(=O)N[C@@H]1Cc2cc(Cl)ccc2-n2c(nnc2[C@H]2CC[C@H](Oc3ccccn3)CC2)C1 [Example 124, N-{(5R)-8-chloro-1-[trans-4-(pyridin-2-yloxy)cyclohexyl]-5,6-dihydro-4H-[1,2,4]triazolo[4,3-a][1]benzazepin-5-yl}-2-methylpropanamide]
28 | 2.3 | 0.8 | O=C(N[C@@H]1Cc2cc(Cl)ccc2-n2c(nnc2[C@H]2CC[C@H](Oc3ccccn3)CC2)C1)C1CCC1 [Example 125, N-{(5R)-8-chloro-1-[trans-4-(pyridin-2-yloxy)cyclohexyl]-5,6-dihydro-4H-[1,2,4]triazolo[4,3-a][1]benzazepin-5-yl}cyclobutanecarboxamide]
29 | 14 | 2 | CCC(C)N[C@H]1Cc2cc(Cl)ccc2-n2c(nnc2[C@H]2CC[C@H](Oc3ccccn3)CC2)C1 (stereo partly drawn) [Example 128]
30 | 54 | 2.9 | CC(C)NC1Cc2cc(Cl)ccc2-n2c(nnc2C2CCN(c3ccccn3)CC2)C1 (stereo not drawn) [Example 135, 8-chloro-N-(propan-2-yl)-1-[l-(pyridin-2-yl)piperidin-4-yl]-5,6-dihydro-4H-[1,2,4]triazolo[4,3-a][1]benzazepin-5-amine]
